The values below come from the supplement of paper PMC10307832.

Holding throughout (experiment): relative viability (nuclei count vs DMSO), 5 days (fraction); higher = more cells survive
Compound in the assay “Palbociclib + Pemetrexed”: CC(=O)c1c(C)c2cnc(Nc3ccc(N4CCNCC4)cn3)nc2n(C2CCCC2)c1=O [Palbociclib] + Nc1nc2[nH]cc(CCc3ccc(C(=O)N[C@@H](CCC(=O)O)C(=O)O)cc3)c2c(=O)[nH]1 [Pemetrexed] (partner 0.2 µM)
A digest of the protocol: (§1)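 Relative viability was taken as the ratio of nuclei in treated wells to nuclei in vehicle wells. Lung cancer cell lines in 1536-well plates received compounds by pin tool one day after seeding, either one drug alone or a fixed anchor-drug dose plus five library-drug doses (not always all listed) in √10 steps. Nuclei were counted on 4× images after 5 days of treatment, and values are medians of duplicate plates.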

Compound in the assay “Palbociclib + Linsitinib”: CC(=O)c1c(C)c2cnc(Nc3ccc(N4CCNCC4)cn3)nc2n(C2CCCC2)c1=O [Palbociclib] + C[C@]1(O)C[C@@H](c2nc(-c3ccc4ccc(-c5ccccc5)nc4c3)c3c(N)nccn32)C1 [Linsitinib] (partner 1 µM)
The procedure, abridged: as §1

Compound in the assay “Palbociclib + Olaparib”: CC(=O)c1c(C)c2cnc(Nc3ccc(N4CCNCC4)cn3)nc2n(C2CCCC2)c1=O [Palbociclib] + O=C(c1cc(Cc2n[nH]c(=O)c3ccccc23)ccc1F)N1CCN(C(=O)C2CC2)CC1 [Olaparib] (partner 8 µM)
A digest of the protocol: as §1

Compound in the assay “Palbociclib + OSI-027”: CC(=O)c1c(C)c2cnc(Nc3ccc(N4CCNCC4)cn3)nc2n(C2CCCC2)c1=O [Palbociclib] + COc1cccc2cc(-c3nc([C@H]4CC[C@H](C(=O)O)CC4)n4ncnc(N)c34)[nH]c12 [OSI-027] (partner 0.5 µM)
The procedure, abridged: as §1

Regarding NCI-H2023, the relative viability in the assay with Palbociclib + Pemetrexed (first compound 0.01 µM) is 0.203; in the assay with Palbociclib + Pemetrexed (first compound 0.03162 µM), 0.188; in the assay with Palbociclib + Pemetrexed (first compound 0.1 µM) it was 0.169; in the assay with Palbociclib + Pemetrexed (first compound 0.3162 µM), 0.174; with Palbociclib + Pemetrexed (first compound 1 µM), 0.142; with Palbociclib + Linsitinib (first compound 0.01 µM) it was 0.658. The relative viability with Palbociclib + Linsitinib (first compound 0.03162 µM) turned out to be 0.597; with Palbociclib + Linsitinib (first compound 0.1 µM) it was 0.57; with Palbociclib + Linsitinib (first compound 0.3162 µM), 0.472; with Palbociclib + Linsitinib (first compound 1 µM), 0.316; in the assay with Palbociclib + Olaparib (first compound 0.01 µM) it was 0.467; in the assay with Palbociclib + Olaparib (first compound 0.03162 µM) it was 0.478. For the same cell line, the relative viability in the assay with Palbociclib + Olaparib (first compound 0.1 µM) turned out to be 0.402; in the assay with Palbociclib + Olaparib (first compound 0.3162 µM), 0.374; in the assay with Palbociclib + Olaparib (first compound 1 µM), 0.262; with Palbociclib + OSI-027 (first compound 0.01 µM) it was 0.358; with Palbociclib + OSI-027 (first compound 0.03162 µM), 0.335; with Palbociclib + OSI-027 (first compound 0.1 µM), 0.298. The relative viability turned out to be 0.265 with Palbociclib + OSI-027 (first compound 0.3162 µM) and 0.154 with Palbociclib + OSI-027 (first compound 1 µM).

NCI-H2085: the relative viability is 0.823 with Palbociclib + Pemetrexed (first compound 0.01 µM); 0.798 with Palbociclib + Pemetrexed (first compound 0.03162 µM); 0.752 with Palbociclib + Pemetrexed (first compound 0.1 µM); 0.6 with Palbociclib + Pemetrexed (first compound 0.3162 µM); 0.485 with Palbociclib + Pemetrexed (first compound 1 µM); 1.01 in the assay with Palbociclib + Linsitinib (first compound 0.01 µM). In addition, the relative viability with Palbociclib + Linsitinib (first compound 0.03162 µM) was 0.785; with Palbociclib + Linsitinib (first compound 0.1 µM), 0.77; in the assay with Palbociclib + Linsitinib (first compound 0.3162 µM) it was 0.662; in the assay with Palbociclib + Linsitinib (first compound 1 µM), 0.571; with Palbociclib + Olaparib (first compound 0.01 µM), 0.788; in the assay with Palbociclib + Olaparib (first compound 0.03162 µM), 0.767. Besides, the relative viability with Palbociclib + Olaparib (first compound 0.1 µM) turned out to be 0.712; in the assay with Palbociclib + Olaparib (first compound 0.3162 µM), 0.584; with Palbociclib + Olaparib (first compound 1 µM), 0.488; in the assay with Palbociclib + OSI-027 (first compound 0.01 µM) it was 0.658; with Palbociclib + OSI-027 (first compound 0.03162 µM), 0.55; in the assay with Palbociclib + OSI-027 (first compound 0.1 µM) it was 0.547. Moreover, the relative viability in the assay with Palbociclib + OSI-027 (first compound 0.3162 µM) turned out to be 0.574; with Palbociclib + OSI-027 (first compound 1 µM) it was 0.369.

As to NCI-H2087, the relative viability with Palbociclib + Pemetrexed (first compound 0.01 µM) was 0.683; with Palbociclib + Pemetrexed (first compound 0.03162 µM), 0.664; with Palbociclib + Pemetrexed (first compound 0.1 µM) it was 0.621; in the assay with Palbociclib + Pemetrexed (first compound 0.3162 µM), 0.537; with Palbociclib + Pemetrexed (first compound 1 µM) it was 0.393; with Palbociclib + Linsitinib (first compound 0.01 µM), 0.932. Besides, the relative viability with Palbociclib + Linsitinib (first compound 0.03162 µM) turned out to be 0.837; with Palbociclib + Linsitinib (first compound 0.1 µM), 0.826; with Palbociclib + Linsitinib (first compound 0.3162 µM), 0.503; with Palbociclib + Linsitinib (first compound 1 µM) it was 0.541; with Palbociclib + Olaparib (first compound 0.01 µM), 0.721; with Palbociclib + Olaparib (first compound 0.03162 µM), 0.517. The relative viability with Palbociclib + Olaparib (first compound 0.1 µM) is 0.403; with Palbociclib + Olaparib (first compound 0.3162 µM) it was 0.437; with Palbociclib + Olaparib (first compound 1 µM) it was 0.248; in the assay with Palbociclib + OSI-027 (first compound 0.01 µM) it was 0.433; with Palbociclib + OSI-027 (first compound 0.1 µM), 0.361; with Palbociclib + OSI-027 (first compound 0.3162 µM), 0.278. In addition, the relative viability with Palbociclib + OSI-027 (first compound 1 µM) was found to be 0.25.

Consider NCI-H2126, for which the relative viability with Palbociclib + Pemetrexed (first compound 0.01 µM) is 0.725; with Palbociclib + Pemetrexed (first compound 0.03162 µM), 0.581; with Palbociclib + Pemetrexed (first compound 0.1 µM), 0.509; with Palbociclib + Pemetrexed (first compound 0.3162 µM), 0.51; with Palbociclib + Pemetrexed (first compound 1 µM), 0.345; in the assay with Palbociclib + Linsitinib (first compound 0.01 µM) it was 0.736. The relative viability with Palbociclib + Linsitinib (first compound 0.03162 µM) came to 0.706; with Palbociclib + Linsitinib (first compound 0.1 µM), 0.693; in the assay with Palbociclib + Linsitinib (first compound 0.3162 µM) it was 0.598; with Palbociclib + Linsitinib (first compound 1 µM), 0.428; with Palbociclib + Olaparib (first compound 0.01 µM), 0.972; with Palbociclib + Olaparib (first compound 0.03162 µM) it was 0.833. Also, the relative viability came to 0.698 in the assay with Palbociclib + Olaparib (first compound 0.1 µM); 0.719 with Palbociclib + Olaparib (first compound 0.3162 µM); 0.526 with Palbociclib + Olaparib (first compound 1 µM); 0.694 in the assay with Palbociclib + OSI-027 (first compound 0.01 µM); 0.53 with Palbociclib + OSI-027 (first compound 0.03162 µM); 0.443 with Palbociclib + OSI-027 (first compound 0.1 µM). In addition, the values for the relative viability in the assay with Palbociclib + OSI-027 (first compound 0.3162 µM) and with Palbociclib + OSI-027 (first compound 1 µM) were 0.441 and 0.378, respectively.

Regarding NCI-H2228, the relative viability worked out at 0.312 in the assay with Palbociclib + Pemetrexed (first compound 0.01 µM); 0.352 in the assay with Palbociclib + Pemetrexed (first compound 0.03162 µM); 0.337 with Palbociclib + Pemetrexed (first compound 0.1 µM); 0.341 with Palbociclib + Pemetrexed (first compound 0.3162 µM); 0.346 in the assay with Palbociclib + Pemetrexed (first compound 1 µM); 0.51 with Palbociclib + Linsitinib (first compound 0.01 µM). Further, the relative viability in the assay with Palbociclib + Linsitinib (first compound 0.03162 µM) was found to be 0.573; in the assay with Palbociclib + Linsitinib (first compound 0.1 µM), 0.674; in the assay with Palbociclib + Linsitinib (first compound 0.3162 µM), 0.598; in the assay with Palbociclib + Linsitinib (first compound 1 µM), 0.83; in the assay with Palbociclib + Olaparib (first compound 0.01 µM), 0.724; in the assay with Palbociclib + Olaparib (first compound 0.03162 µM) it was 0.624. Moreover, the relative viability turned out to be 0.55 with Palbociclib + Olaparib (first compound 0.1 µM); 0.64 with Palbociclib + Olaparib (first compound 0.3162 µM); 0.465 with Palbociclib + Olaparib (first compound 1 µM); 0.529 with Palbociclib + OSI-027 (first compound 0.01 µM); 0.373 with Palbociclib + OSI-027 (first compound 0.03162 µM); 0.389 with Palbociclib + OSI-027 (first compound 0.1 µM). Also, the values for the relative viability with Palbociclib + OSI-027 (first compound 0.3162 µM) and with Palbociclib + OSI-027 (first compound 1 µM) were 0.492 and 0.48, respectively.
